Assay results: PMC10705938, “Discovery of Anti-Coronavirus Cinnamoyl Triterpenoids Isolated from Hippophae rhamnoides during a Screening of Halophytes from the North Sea and Channel Coasts in Northern France” (International Journal of Molecular Sciences, 2023)
Values after ≈ are worked out from the molar mass of the structure shown. Where two headings read alike, the source gives them in different places.

How the values were obtained:
Staphylococcus capitis = system: Staphylococcus capitis; parameters: method as in PMID 11199141; conditions: cited from earlier work
Candida albicans = system: Candida albicans; parameters: method as in PMID 11199141; conditions: cited from earlier work
HCoV-229E [1] = experiment: HCoV-229E-Luc infection assay (luciferase) in Huh-7 cells; assay type: cell-based; conditions: Human coronavirus 229E, purified compounds
HCoV-229E [2] = experiment: HCoV-229E-Luc infection assay (luciferase) in Huh-7/TMPRSS2 cells; assay type: cell-based; conditions: Human coronavirus 229E, purified compounds
in vitro = conditions: human, Huh-7 cells
Protocol: The cytotoxicity of 25 crude methanolic extracts was tested on Huh-7 cells using an [3-(4,5-dimethylthiazol-2-yl)-5-(3-carboxymethoxyphenyl)-2-(4-sulfophenyl)-2H-tetrazolium]- based (MTS) viability assay. Huh-7 cells were treated with two different concentrations of the crude methanolic extracts (25 and 100 μg/mL) for 24 h. Non-treated control cells were incubated with 0.1% dimethyl sulfoxide (DMSO) in the media.
Huh-7 cells and Vero-81 cells were seeded in 96-well plates and incubated with 100 μL of culture medium containing increasing concentrations of our compounds for 24 h. An MTS based viability assay (CellTiter 96 aqueous nonradioactive cell proliferation assay, Promega, Madison WI, USA) was performed, as recommended by the manufacturer. The absorbance of formazan at 490 nm was detected using ELx808 plate reader (BioTek Instruments Inc., Winooski, VT, USA). Each measurement was performed in triplicate.

SARS-CoV-2 = experiment: microbe, parasite or virus in culture; assay type: cell-based; conditions: read-out: inhibition of SARS-CoV-2 (N protein levels)
SARS-CoV-2 Mpro enzyme = system: SARS-CoV-2 Mpro enzyme; parameters: method as in PMID 35066300; conditions: cited from earlier work
hepatitis C virus = system: hepatitis C virus; parameters: method as in PMID 30842319; conditions: cited from earlier work
[3] = system: SARS-CoV-2 spike pseudotyped virus; conditions: in vitro; cited from earlier work

CC1(C)CC[C@]2(C(=O)O)CC[C@]3(C)C(=CC[C@@H]4[C@@]5(C)C[C@@H](O)[C@H](OC(=O)/C=C/c6ccc(O)cc6)C(C)(C)[C@@H]5CC[C@]43C)[C@@H]2C1 (relative stereo) [3-β -O-(trans-p-coumaroyl)maslinic acid]
minimum inhibitory concentration (Staphylococcus capitis): 12.5 µg/mL (≈ 20.2 µM) | minimum inhibitory concentration (Candida albicans): 12.5 µg/mL (≈ 20.2 µM)

CC1(C)CC[C@]2(C(=O)O)CC[C@]3(C)C(=CC[C@@H]4[C@@]5(C)C[C@@H](OC(=O)/C=C/c6ccc(O)cc6)[C@H](O)C(C)(C)[C@@H]5CC[C@]43C)[C@@H]2C1 [F2-1, 2-O-trans-p-coumaroyl-maslinic acid]
IC50 (HCoV-229E [1]): 8.6 µM | IC50 (HCoV-229E [2]): 9.1 µM | CC50 at 24 h (in vitro): 39.9 µM

C[C@H]1[C@H](C)CC[C@]2(C(=O)O)CC[C@]3(C)C(=CC[C@@H]4[C@@]5(C)C[C@@H](OC(=O)/C=C/c6ccc(O)cc6)[C@H](O)C(C)(C)[C@@H]5CC[C@]43C)[C@H]12 [F2-2, 3β-hydroxy-2α-trans-p-coumaryloxy-urs-12-en-28-oic acid]
IC50 (HCoV-229E [1]): 12 µM | IC50 (HCoV-229E [2]): 11.4 µM | CC50 at 24 h (in vitro): 44.4 µM

C[C@H]1[C@H](C)CC[C@]2(C(=O)O)CC[C@]3(C)C(=CC[C@@H]4[C@@]5(C)C[C@@H](OC(=O)/C=C\c6ccc(O)cc6)[C@H](O)C(C)(C)[C@@H]5CC[C@]43C)[C@H]12 [F2-3, 3β-hydroxy-2α-cis-p-coumaryloxy-urs-12-en-28-oic acid]
IC50 (HCoV-229E [1]): 14.5 µM | IC50 (HCoV-229E [2]): 14.1 µM | CC50 at 24 h (in vitro): 52.1 µM

CC1(C)CC[C@]2(C(=O)O)CC[C@]3(C)C(=CC[C@@H]4[C@@]5(C)CC[C@H](OC(=O)/C=C/c6ccc(O)c(O)c6)C(C)(C)[C@@H]5CC[C@]43C)[C@@H]2C1 [F4-2, 3-O-trans-caffeoyl-oleanolic acid]
IC50 (HCoV-229E [1]): 11.6 µM | IC50 (HCoV-229E [2]): 11.5 µM | inhibition at 50 µM (SARS-CoV-2; Severe acute respiratory syndrome coronavirus 2, 50 µM, Vero-81, 16 h, Western blot): 54% | CC50 at 24 h (in vitro): 81.4 µM

CC1(C)CC[C@]2(C(=O)O)CC[C@]3(C)C(=CC[C@@H]4[C@@]5(C)CC[C@H](OC(=O)/C=C/c6ccc(O)cc6)C(C)(C)[C@@H]5CC[C@]43C)[C@@H]2C1 [F7-1, 3-O-trans-p-coumaroyl-oleanolic acid]
IC50 (HCoV-229E [1]): 11.4 µM | IC50 (HCoV-229E [2]): 10.7 µM | inhibition at 50 µM (SARS-CoV-2; Severe acute respiratory syndrome coronavirus 2, 16 h): 55.5% | CC50 at 24 h (in vitro): 39.3 µM

C[C@H]1[C@H](C)CC[C@]2(C(=O)O)CC[C@]3(C)C(=CC[C@@H]4[C@@]5(C)CC[C@H](O)C(C)(C)[C@@H]5CC[C@]43C)[C@H]12 [UA, ursolic acid]
inhibition of SARS-CoV-2 Mpro enzyme activity (SARS-CoV-2 Mpro enzyme): successfully inhibited its activity

C=Cc1c(C)c(O)cc2ccc3c(C)c(O)ccc3c12 [dehydrojuncusol]
inhibition of hepatitis C virus replication (hepatitis C virus): inhibitor of hepatitis C virus replication

COc1cc(-c2oc3cc(O)cc(O)c3c(=O)c2O)ccc1O [isorhamnetin]
antiviral activity against SARS-CoV-2 spike pseudotyped virus [3]: displayed antiviral activity
